Holding throughout (format): in vivo, male Albino Sprague Dawley rats
The subject of series [1] is indomethacin - induced microscopic intestinal damage. The series is described as follows: Histological analysis of intestinal damage in jejunum and ileum (Example 16). Conditions: rats. As to the method: (§1) The whole intestinal tract was removed and processed for the evaluation of tissue myeloperoxidase (MPO) levels and histological analysis of intestinal damage in jejunum and ileum.
Pharmacol. Ther. 1993; 7:29-39. Upon removal, the whole intestinal tract was immediately injected with 10% formalin and left in the same fixative solution. After 30 min, it was opened along the anti-mesenteric border, cleaned of fecal content and fixed in 10% formalin for 24 h. Tissue samples were taken as described below and the full length of small intestine was measured.
In particular the following tissue samples were taken • Ileum: 1 cm of tissue proximal to the ileo-cecal valve was discarded and two specimens of 1.5-2 cm of ileum were taken at this edge as well as 5 cm away from the first ileum sample • Proximal jejunum: two specimens of 1.5-2 cm were taken 5 cm away from both the proximal and distal end of the 37.5% of the small intestine total length. • Distal jejunum: two specimens of 1.5-2 cm were taken 5 cm away from both the proximal and distal end of 81% of small intestine's total length.
After fixation, tissues were embedded into paraffin blocks and were cut into consecutive serial 3-μm sections for staining with hematoxylin and eosin. Histological damage was assessed by two observers, blind to the treatment. Each section was given a score of lesion (Type 1 to 3) (TABLE 23).
Quantitative assessment of histological damage was expressed as percentage of the total length of lesions over the total length of the histological section.

The test system of another series is myeloperoxidase (MPO). Briefly: Tissue myeloperoxidase (MPO) levels in jejunum and ileum, ELISA (Example 16). As to the method: as §1
Specimens of intestinal tissues (30 mg) were homogenized on ice with a polytron homogenizer (QIAGEN, Milan, Italy) in 0.6 mL of ice-cold lysis buffer (200 mM NaCl, 5 mM EDTA, 10 mM Tris, 10% glycerine, 1 mM PMSF, 1 μg/ml leupeptin and 28 μg/ml aprotinin (pH 7.4). The homogenate was centrifuged 2 times at 4° C. for 15 min at 1.500 g. The supernatant was diluted 1:5 and used for determination of MPO concentration by means of enzyme-linked immunosorbent assay (ELISA) (Hycult Biotech, Uden, Netherlands). All samples were assayed within 2 day after collection. The results were expressed as nanograms of MPO per milligram of intestinal tissue.
A general note: ELISA stands for enzyme-linked immunosorbent assay.

Series [2] can be described thus: Mortality in indomethacin-induced enteropathy in rats (Example 16). Particulars: indomethacin […] BID + rifaximin product 50 mg/kg BID, 14 days. As to the method: A percentage of 100% of survivors was also recorded in vehicle control group (Group 1).
Series [3] is described as follows: Blood hemoglobin levels in indomethacin-induced enteropathy in rats (Example 16). As to the method: Twenty four hours after the last dose, the rats were euthanized and samples of blood were collected for the assessment of hemoglobin levels.
Hemoglobin analysis was performed on rat blood samples collected as reported above, by means of Quantichrom Hemoglobin assay kit (Bioassay Systems, Hayward, Calif., USA) and expressed as g/dL.

Where [4] appears, read: indomethacin […] BID 14 days, alone or with gastroresistant rifaximin 25 and 50 mg/kg BID or rifaximin polymorph alpha 50 mg/kg BID.
The mark [5] stands for this setting: rats, indomethacin […] BID 14 days, alone or with gastroresistant rifaximin 25 or 50 mg/kg BID or rifaximin polymorph alpha 50 mg/kg BID.

Structures are written as SMILES.

Experimental findings from patent publication US20190388411A1, “NSAID ADMINISTRATION AND RELATED COMPOSITIONS, METHODS AND SYSTEMS” (Alfasigma S.p.A., priority 2013, published 2019) are described below.

As to `CO[C@H]1/C=C/O[C@@]2(C)Oc3c(C)c(O)c4c(O)c(c5c(nc6cc(C)ccn65)c4c3C2=O)NC(=O)/C(C)=C\C=C\[C@H](C)[C@H](O)[C@@H](C)[C@@H](O)[C@@H](C)[C@H](OC(C)=O)[C@@H]1C` [rifaximin polymorph alpha, rifaximin], in series [1] (setting [4]), the “Ileum type 1 lesions, microscopic assessment (in words)” value was “significant reduction of Type 1 lesions”; the “Ileum type 2 lesions, microscopic assessment (in words)” value was “no significant differences were appreciated on the occurrence of type 2 lesions”; the “Jejunum type 1 lesions, microscopic assessment (in words)” value is “reduced the degree of type 1 lesions, although mean values were not significantly different”. Also, the “Lesions / histological damage in ileum and jejunum, overall (in words)” value in series [1] (with indomethacin […] BID 14 days, gastroresistant rifaximin 25 and 50 mg/kg BID, rifaximin polymorph alpha 50 mg/kg BID) was “effective in the reduction of lesions”. For the same compound, the “Reduction of MPO levels in respect to animals which did not receive rifaximin” value in the series on myeloperoxidase (MPO) (rats treated with indomethacin, 14 days) is given as “about 22%”. In addition, in the series with myeloperoxidase (MPO) (setting [5]), the “Ileum tissue MPO levels (in words)” value is reported as “blunted” and the “Jejunum tissue MPO levels (in words)” value is “did not exert any relevant effect”. The “Mortality (%)” value in series [2] is recorded as “not associated with deaths”. Besides, the “Blood hemoglobin concentration (in words)” value in series [3] (indomethacin […] BID 14 days, alone or with gastroresistant rifaximin at both doses or rifaximin polymorph alpha 50 mg/kg BID) is reported as “these levels were decreased”.
Regarding `CO[C@H]1/C=C/O[C@@]2(C)Oc3c(C)c(O)c4c(O)c(c5c(nc6cc(C)ccn65)c4c3C2=O)NC(=O)/C(C)=C\C=C\[C@H](C)[C@H](O)[C@@H](C)[C@@H](O)[C@@H](C)[C@H](OC(C)=O)[C@@H]1C` [rifaximin, (2S, 16Z, 18E, 20S, 21S, 22R, 23R, 24R, 25S, 26S, 27S, 28E)-5,6, 21, 23, 25 pentahydroxy-27-methoxy-2,4, 11, 16, 20, 22, 24, 26-octamethyl-2,7-(epoxypentadeca-(1,11,13)trienimino) benzofuro (4,5-e) pyrido (1,2,-a benzimidazole-1,15(2H)dione, 25-acetate)], the “Jejunum type 2 lesions, microscopic assessment (in words)” value in series [1] (setting [4]) was “significantly reduced Type 2 lesions”. Besides, the “Mortality (%)” value in series [2] is on record as “do not displayed death”. Moreover, the “Reduction in hemoglobin values” in series [3] (end of the treatment period (14 days), in respect to the control) was determined as 12%.
